IC50 and EC50 data for seven compounds are collected here from patent US20030073681A1, “2-substituted piperidines that are ligands for monoamine receptors and transporters” (priority 2001, published 2003).

pIC50: −log10 of the molar value. Where only a bound is given, the exact number is not on record here.

The target of experiment [1] is T1, Human DA Receptor (Homo sapiens, UniProt Q01959). The experiment is described as follows: Displacement of dopamine ligands in vitro (uptake profile).
In experiment [2] the target is T2, Human 5-HT Receptor (Homo sapiens, UniProt P31645). Briefly: Displacement of serotonin ligands in vitro (uptake profile). It counts as binding.
Experiment [3] addresses T3, Human NE Receptor (Homo sapiens, UniProt P23975). Briefly: Displacement of norephinephrine ligands in vitro (uptake profile). It counts as binding.
The target of experiment [4] is T1, Human DA Receptor. Briefly: Dopamine functional activity in hDAT cell line. On the set-up: expressed in transfected cells. The settings on record: read-out: Functional Assays (EC50, nM) Human DA Receptor. Format: cell-based.
Experiment [5] has as its target T2, Human 5-HT Receptor. The experiment is described as follows: Functional activity for serotonin uptake inhibition in human HEK-293 cell lines. Format: cell-based. Further details: expressed in transfected cells; host or cells: HEK-293. The note with it: read-out: Functional Assays (EC50, nM) Human 5-HT Receptor.
In experiment [6] the target is T3, Human NE Receptor. Briefly: Functional activity for norephinephrine uptake inhibition in MDCK cell lines. Format: cell-based. The note with it: read-out: Functional Assays (EC50, nM) Human NE Receptor.

T1 sequence (Q01959 whole entry): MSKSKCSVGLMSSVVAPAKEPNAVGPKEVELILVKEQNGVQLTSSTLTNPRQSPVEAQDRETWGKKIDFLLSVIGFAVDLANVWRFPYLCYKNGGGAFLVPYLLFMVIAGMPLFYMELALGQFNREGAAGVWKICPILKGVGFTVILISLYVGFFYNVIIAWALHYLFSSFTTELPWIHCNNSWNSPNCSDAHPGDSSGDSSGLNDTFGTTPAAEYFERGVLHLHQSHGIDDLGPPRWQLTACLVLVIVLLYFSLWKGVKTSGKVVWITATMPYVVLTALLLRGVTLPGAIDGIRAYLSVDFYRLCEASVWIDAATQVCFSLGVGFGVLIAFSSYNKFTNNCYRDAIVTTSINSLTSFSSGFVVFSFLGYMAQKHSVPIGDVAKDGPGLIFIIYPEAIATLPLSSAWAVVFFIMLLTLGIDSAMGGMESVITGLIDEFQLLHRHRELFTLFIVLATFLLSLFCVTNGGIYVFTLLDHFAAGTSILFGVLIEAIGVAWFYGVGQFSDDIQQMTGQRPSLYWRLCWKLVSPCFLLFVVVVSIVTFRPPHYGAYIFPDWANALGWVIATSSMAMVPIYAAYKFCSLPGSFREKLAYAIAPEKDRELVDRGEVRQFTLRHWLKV
T3 sequence (P23975 whole entry): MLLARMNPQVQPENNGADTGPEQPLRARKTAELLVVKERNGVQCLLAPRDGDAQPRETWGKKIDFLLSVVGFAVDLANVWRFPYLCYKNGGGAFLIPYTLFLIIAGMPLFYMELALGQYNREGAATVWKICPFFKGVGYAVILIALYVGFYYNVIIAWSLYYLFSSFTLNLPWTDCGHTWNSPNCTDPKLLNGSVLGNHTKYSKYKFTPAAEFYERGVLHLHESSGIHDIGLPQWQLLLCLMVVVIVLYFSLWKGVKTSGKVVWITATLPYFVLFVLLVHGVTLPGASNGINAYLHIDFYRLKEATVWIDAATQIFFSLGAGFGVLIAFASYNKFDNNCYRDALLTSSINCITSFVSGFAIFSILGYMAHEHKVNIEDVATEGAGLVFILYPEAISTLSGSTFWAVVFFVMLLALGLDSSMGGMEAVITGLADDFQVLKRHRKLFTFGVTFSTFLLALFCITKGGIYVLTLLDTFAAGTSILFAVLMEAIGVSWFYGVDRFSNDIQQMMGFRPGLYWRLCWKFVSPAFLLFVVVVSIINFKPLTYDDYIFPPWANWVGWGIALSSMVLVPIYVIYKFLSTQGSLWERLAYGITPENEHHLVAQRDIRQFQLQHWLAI
T2 sequence (P31645 whole entry): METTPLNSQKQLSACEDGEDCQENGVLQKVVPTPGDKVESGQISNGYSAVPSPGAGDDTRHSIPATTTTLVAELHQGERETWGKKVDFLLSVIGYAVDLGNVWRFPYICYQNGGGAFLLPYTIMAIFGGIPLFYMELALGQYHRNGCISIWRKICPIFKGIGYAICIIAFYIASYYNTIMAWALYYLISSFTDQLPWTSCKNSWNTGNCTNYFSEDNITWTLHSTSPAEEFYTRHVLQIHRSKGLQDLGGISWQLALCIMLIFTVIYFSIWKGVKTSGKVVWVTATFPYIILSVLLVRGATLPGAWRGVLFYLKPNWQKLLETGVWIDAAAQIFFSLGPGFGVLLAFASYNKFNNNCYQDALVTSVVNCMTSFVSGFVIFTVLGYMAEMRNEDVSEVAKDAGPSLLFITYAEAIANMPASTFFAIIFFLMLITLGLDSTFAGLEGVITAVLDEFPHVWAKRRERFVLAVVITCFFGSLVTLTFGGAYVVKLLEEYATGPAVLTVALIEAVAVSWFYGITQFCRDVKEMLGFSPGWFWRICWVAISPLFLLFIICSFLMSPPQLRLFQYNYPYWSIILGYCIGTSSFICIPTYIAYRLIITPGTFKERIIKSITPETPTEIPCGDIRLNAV

Consider `FC(F)(F)c1ccc(OCCC2CCCCN2CC2(c3ccc(Cl)cc3)CCC2)cc1` (stereo not drawn) [Compound 7, 1-[1-(4-Chloro-phenyl)-cyclobutylmethyl]-2-[2-(4-trifluoromethyl-phenoxy)-ethyl]-piperidine], for which, on Human DA Receptor [1], the pIC50 is over 7.00. For the same compound, the IC50 at Human 5-HT Receptor [2] was over 1000 nM; on Human NE Receptor [3], under 1000 nM.
For `O=C(CCCN1CCCCC1CCOc1ccc(C(F)(F)F)cc1)c1ccc(F)cc1` (stereo not drawn) [Compound 32, 1-(4-Fluoro-phenyl)-4-{2-[2-(4-trifluoromethyl-phenoxy)-ethyl]-piperidin-1-yl}-butan-1-one], the results for the EC50 on Human DA Receptor [4], on Human 5-HT Receptor [5] and at Human NE Receptor [6] were under 1000 nM, under 1000 nM and over 1000 nM, respectively.
With `CC(CN1CCCCC1CCOc1ccc(C(F)(F)F)cc1)C(O)c1ccc(Cl)cc1` (stereo not drawn) [Compound 14, 1-(4-Chloro-phenyl)-2-methyl-3-{2-[2-(4-trifluoromethyl-phenoxy)-ethyl]-piperidin-1-yl}-propan-1-ol], on Human DA Receptor [1], the pIC50 was over 7.00. Also, the IC50 at Human 5-HT Receptor [2] and on Human NE Receptor [3] was under 1000 nM in each case.
On to `O[C@H](CN1CCCCC1CCOc1ccc(C(F)(F)F)cc1)C1(c2ccc(Cl)cc2)CCC1` (stereo partly drawn) [Compound 9, 1-[1-(4-Chloro-phenyl)-cyclobutyl]-2-{2-[2-(4-trifluoromethyl-phenoxy)-ethyl]-piperidin-1-yl}-S-ethanol], for which, at Human DA Receptor [1], the pIC50 is over 8.00. Further, the values for the EC50 at Human DA Receptor [4], on Human 5-HT Receptor [5] and at Human NE Receptor [6] were under 100 nM, under 100 nM and under 10 nM, respectively. Further, the IC50 was under 1000 nM at Human 5-HT Receptor [2] and under 100 nM on Human NE Receptor [3].
Consider `CC(CN1CCCCC1CCOc1ccc(C(F)(F)F)cc1)C(=O)c1ccc(Cl)cc1` (stereo not drawn) [Compound 13, 1-(4-Chloro-phenyl)-2-methyl-3-{2-[2-(4-trifluoromethyl-phenoxy)-ethyl]-piperidin-1-yl}-propan-1-one], for which the pIC50 at Human DA Receptor [1] was under 6.00. For the same compound, the IC50 at Human 5-HT Receptor [2] and on Human NE Receptor [3] was over 1000 nM each time.
`OC(CN1CCCCC1CCOc1ccc(C(F)(F)F)cc1)C1(c2ccc(Cl)c(Cl)c2)CCC1` (stereo not drawn) [Compound 18, 1-[1-(3,4-Dichloro-phenyl)-cyclobutyl]-2-{2-[2-(4-trifluoromethyl-phenoxy)-ethyl]-piperidin-1-yl}-ethanol]: the pIC50 on Human DA Receptor [1] was over 8.00. Also, the IC50 is under 1000 nM on Human 5-HT Receptor [2] and under 100 nM on Human NE Receptor [3].
Regarding `CN1CCN(CC(O)c2ccc(Cl)cc2)C(CCc2ccc(C(F)(F)F)cc2)C1` (stereo not drawn) [Compound 30, 1-(4-Chloro-phenyl)-2-{4-methyl-2-[2-(4-trifluoromethyl-phenyl)-ethyl]-piperazin-1-yl}-ethanol], the results for the EC50 at Human DA Receptor [4], at Human 5-HT Receptor [5] and at Human NE Receptor [6] were over 1000 nM, under 1000 nM and over 1000 nM, respectively.
